Laboratory results taken from patent publication US9456973B2, “Methionyl-methionine stereoisomers and use thereof in cosmetics” (EVONIK DEGUSSA GMBH, priority 2013, dated 2016).

Assays:
Set-up in all cases: species or system human
[1] = Hair fatigue breakage of bleached hair, Dia-stron Automatic Cyclic Tester (CYC800), Weibull analysis; conditions: simple hair conditioner (Table 3), 2.0%; Constant Stress method; vehicle 14 190 cycles; FIG. 8
Method: A tress section of human Euro-Natural hair, remis, double-drawn with a length of 23 cm and a width of 2.0 cm with a weight of 2.0 g and dark-brown color was wetted under a tap of running water over the course of 10 seconds. 8 g of a 30% strength aqueous hydrogen peroxide solution were mixed with 4 g of Basler Blond Claire bleaching powder, 2 mL of a 25% strength aqueous ammonia solution were added, and combined again and 8 g of the resulting paste were massaged into the tress section with the help of a comb and the protected hands. […]
Afterwards, per treatment method 40 hairs were removed from the tress section and in each case the middle section of a hair with a length of 3 cm was crimped between two brass sleeves with plastic coating on the inside. The average area of each individual hair was measured using a Dia-stron FDAS760 fibre dimensional system and UvWin PC application software. […]
In order to measure the hair fatigue breakage, the hair samples were transferred to the sample cassette of a Dia-stron Automatic Cyclic Tester (CYC800) and climatized at 22° C. and 50-55% rel. atmospheric humidity. […] The characteristic life span a of a hair fibre is calculated by means of Weibull analysis. […]

[2] = Repair of bleached hair: tensile elongation forces by Dia-stron Tensile Tester MTT 670
Method: A tress section of human Euro-Natural hair, remis, double-drawn with a length of 23 cm and a width of 2.0 cm with a weight of 2.0 g and dark-brown color was wetted under a tap of running water over the course of 10 seconds. 8 g of a 30% strength aqueous hydrogen peroxide solution were mixed with 4 g of Basler Blond Claire bleaching powder, 2 mL of a 25% strength aqueous ammonia solution were added, and combined again and 8 g of the resulting paste were massaged into the tress section with the help of a comb and the protected hands. After a contact time of 30 minutes at room temperature, the tress section was washed for 2 minutes under running tap water at ca. 35° C. and then dried by means of an electronic hair dryer for 3 minutes while combing at the same time. The entire procedure was repeated once starting from the wetting of the tress section.
(§1) Afterwards, per treatment method 40 hairs were removed from the tress section and in each case the middle section of a hair with a length of 3 cm was crimped between two brass sleeves with plastic coating on the inside. The average area of each individual hair was measured using a Dia-stron FDAS760 fibre dimensional system and UvWin PC application software. The hair samples were then transferred to the sample cassette of a Dia-stron Tensile Tester MTT 670 and admixed in each case with demineralized water adjusted to pH 7 using citric acid. A measurement of the individual hair strands with the Single Fiber Method (Extension 20%, Rate 20 mm/min, Gauge Force 2, Maximum Force 200, Break Threshold 5, Sample Size 30 mm) was started. The hair samples were then removed from the sample cassette and covered with demineralized water in a plastic bowl.
(§2) For the treatment with hair conditioner, the water was removed after 30 minutes and the hair samples were covered with hair conditioner. After a contact time of 30 minutes, each individual hair sample was washed under a stream of running water at ca. 35° C. for 6 seconds. The hair samples were dried overnight at 22° C. and 50% relative atmospheric humidity.
For the treatment with shampoo, the water was removed after 30 minutes and the hair samples were covered with shampoo. After a contact time of 5 minutes, each individual hair sample was washed under a stream of running water at ca. 35° C. for 6 seconds. The hair samples were briefly dried by means of an electronic hair dryer and the shampoo treatment was repeated four times.
After the particular treatment, the measurement of the individual hair samples starting with the transfer to the sample cassette of the Dia-stron Tensile Tester MTT 670 was repeated.
The evaluation of the data takes place by reference to the parameters modulus of elasticity (E modulus), Load and/or Work. If a hair is pulled, the elongation is initially proportional to the applied force (Hooke's range). The modulus of elasticity describes the applied force per elongation (in Newton/mm^2) in the Hooke's range and therefore represents the tensile strength of a hair fibre. As soon as the hair has been elongated to a length of approximately 2%, it further deforms very rapidly up to ca. 25-30% of its original length, where the increase in the force required for this is minimal (Yield range). The parameter Load corresponds to the force (in Newtons) which is required to elongate the hair up to 15% and the parameter Work indicates the work required to elongate the hair from 0-15% (in Joules).

[3] = Protection of hair against thermal stress (smoothing iron): hair fatigue breakage, Automatic Cyclic Tester; conditions: FIG. 11
Method: A tress section of human Euro-Natural hair, remis, double-drawn with a length of 23 cm and a width of 2.0 cm with a weight of 2.0 g and dark-brown color was wetted under a tap of running water over the course of 10 seconds. Then, 2 mL of shampoo (28.6% Texapon NSO in dist. water) were massaged into the hair for 30 seconds, washed out for a further 30 seconds under running tap water at ca. 35° C., and the hair tress was squeezed between two fingers and combed six times. The hair tress was dipped for 1 minute in 300 mL of active ingredient solution (active ingredient, demin. water, lactic acid, pH 5.5), squeezed between two fingers and rinsed for 30 seconds under running tap water at ca. 35° C. and combed. […]
Afterwards, 50 hairs were removed from the tress section and in each case the middle section of a hair with a length of 3 cm was crimped between two brass sleeves with plastic coating on the inside. The average area of each individual hair was measured using a Dia-stron FDAS760 fibre dimensional system and UvWin PC application software.
The hair samples were then transferred to the sample cassette of a Dia-stron Automatic Cyclic Tester (CYC800) and climatized at 22° C. and 50-55% rel. atmospheric humidity. […] The probability of survival and the characteristic life span a of a hair fibre were calculated by means of Weibull analysis.

[4] = Repair of alkaline smoothed hair: tensile elongation forces by Tensile Tester; conditions: simple hair conditioner (Table 8); 0.5% DD/LL 1:1, 0.5% L-methionine or 2.0% wheat protein (25% active); vehicle 0.43 mN; FIG. 9
Method: as §1
as §2, with “humidity. […]” for “humidity.”
(§3) Afterwards, 40 hairs were removed from the tress section and measured as described in Example 1. […]

[5] = Repair of reductively smoothed hair: tensile elongation forces by Tensile Tester; conditions: simple hair conditioner (Table 9); 0.5% DD/LL 1:1 or 2.0% wheat protein (25% active); FIG. 10
Method: as §1
as §2, with “humidity. […]” for “humidity.”
as §3

[6] = Protection of hair against thermal stress (smoothing iron): denaturation temperature by differential scanning calorimetry; conditions: preventative treatment with active ingredient solution pH 5.5; vehicle 137.9° C.; FIG. 12
Method: A tress section of human Euro-Natural hair, remis, double-drawn with a length of 23 cm and a width of 2.0 cm with a weight of 2.0 g and dark-brown color was wetted under a tap of running water over the course of 10 seconds. Then, 2 mL of shampoo (28.6% Texapon NSO in dist. water) were massaged into the hair for 30 seconds, washed out for a further 30 seconds under running tap water at ca. 35° C., and the hair tress was squeezed between two fingers and combed six times. The hair tress was dipped for 1 minute in 300 mL of active ingredient solution (active ingredient, demin. water, lactic acid, pH 5.5), squeezed between two fingers and rinsed for 30 seconds under running tap water at ca. 35° C. and combed. The hair was dried using an electronic hair dryer for 3 minutes with simultaneous combing and then stored overnight in a climatically controlled chamber (37° C., 50% rel. atmospheric humidity).
The tress section was drawn four times in each case for 30 seconds through a smoothing iron (˜210° C.), which was pressed onto the tress by means of a 630 g weight. This treatment was repeated a total of five times from the wetting of the hair and shampoo treatment (in total 20 draws through the smoothing iron). […]

Compound: CSCCC(N)C(=O)NC(CCSC)C(=O)O (racemic) [DD/LL/LD/DL-methionyl-methionine]
- characteristic life span α: number of cycles in which 63.2% of all hair fibres tear [1]: 33 980 cycles
- improvement of Load at 15% elongation (Load 15%) ([2]; expanded hair conditioner (Table 4), 1.0% DD/LL/LD/DL 35:35:65:65 or 4.0% wheat protein (25% active), vehicle 1.28 mN, FIG. 5): 4.85 mN
- improvement of Work up to 15% elongation (Work 15%) ([2]; expanded hair conditioner (Table 4), 1.0% DD/LL/LD/DL 35:35:65:65 or 4.0% wheat protein (25% active), vehicle 3.51 μJ, FIG. 6): 18.2 µJ
- improvement of Load at 15% elongation (Load 15%) ([2]; shampoo (Table 5), 1.00% DD/LL/LD/DL 35:35:65:65, contact 5 minutes, five treatments, vehicle 0.46 mN, FIG. 7): 1.33 mN
- improvement of Work up to 15% elongation (Work 15%) ([2]; shampoo (Table 5), 1.00% DD/LL/LD/DL 35:35:65:65, contact 5 minutes, five treatments, vehicle 2.46 μJ): 2.58 µJ
- improvement of Load at 15% elongation (Load 15%) ([2]; simple hair conditioner (Table 3), 2.0% active, DD/LL/LD/DL = 1:1:1:1, contact 30 minutes, vehicle 2.65 mN, FIG. 3): 4.14 mN
- improvement of Work up to 15% elongation (Work 15%) ([2]; simple hair conditioner (Table 3), 2.0% active, DD/LL/LD/DL = 1:1:1:1, contact 30 minutes, vehicle 11.0 μJ, FIG. 4): 19.4 µJ

Compound: CSCCC(N)C(=O)NC(CCSC)C(=O)O (centres unmarked) [DD/LL-methionyl-methionine]
- number of cycles at which 20% of the hair remain intact ([3]; preventative treatment with active ingredient solution pH 5.5, DD/LL weight ratio 1:1, vehicle 5500): 10 000 cycles
- number of cycles at which 10% of the hair did not tear ([3]; preventative treatment with active ingredient solution pH 5.5, vehicle 8000): 22 000 cycles
- improvement of Load at 15% elongation (Load 15%) [4]: 3.76 mN
- improvement of Load at 15% elongation (Load 15%) relative to vehicle [5]: 0.96 mN
- hair denaturation temperature (TD) [6]: 139.9 °C

Compound: CSCC[C@H](N)C(=O)O [L-methionine]
- improvement of Load at 15% elongation (Load 15%) [4]: 2.73 mN
- repair effect (Load 15%, Work 15%) compared with vehicle hair conditioner, in words ([2]; simple hair conditioner (Table 3), 2.0% raw material, FIGS. 3 and 4): could be further increased neither
